*1 amine or outer side, *2 acyl side, *3 side chain or, on linkers, in order; H or OH if unused. Where a SMILES comes first, the peptide text is derived from it. Bridges are numbered along the chain shown (N, C = ends). [ ]: non-standard residue; d: D form. ξ: configuration not given here. Trp(1-CH2COOH) = N[C@@H](Cc1cn(CC(=O)O)c2ccccc12)C(=O)O; Phe(3,4,5-F3) = N[C@@H](Cc1cc(F)c(F)c(F)c1)C(=O)O; NMePhe(4-Me) = CN[C@@H](Cc1ccc(C)cc1)C(=O)O; Trp(1-Me) = Cn1cc(C[C@H](N)C(=O)O)c2ccccc21; NMePhe(4-F) = CN[C@@H](Cc1ccc(F)cc1)C(=O)O; Bta = N[C@@H](Cc1csc2ccccc12)C(=O)O; Hyp = O=C(O)[C@@H]1C[C@@H](O)CN1; NMeF = CN[C@@H](Cc1ccccc1)C(=O)O; X1 = O=C([C@H]1COCCN1[*:1])[*:2]; dHyp = O=C(O)[C@H]1C[C@H](O)CN1; NMeNle = CCCC[C@H](NC)C(=O)O; NMeA = CN[C@@H](C)C(=O)O; Orn = NCCC[C@H](N)C(=O)O; Dab = NCC[C@H](N)C(=O)O; Dap = NC[C@H](N)C(=O)O; ξC = NC(CS)C(=O)O; Sar = CNCC(=O)O
molecular target: T1, Human PD-L1/PD-1 (Homo sapiens, UniProt Q9NZQ7); assay: HTRF Human PD-L1/PD-1 binding assay (PD-1-Ig/PD-L1-His); conditions: PD-L1-His 10 nM, PD-1-Ig 20 nM; class symbol; read-out: HTRF Human PD-L1/PD-1 Binding Assay IC50 Range
T1 construct: TVMV protease cleavage site (C); made in house; host or cells: HEK293T cells
T1 sequence (Q9NZQ7 with tags, fused parts or gaps): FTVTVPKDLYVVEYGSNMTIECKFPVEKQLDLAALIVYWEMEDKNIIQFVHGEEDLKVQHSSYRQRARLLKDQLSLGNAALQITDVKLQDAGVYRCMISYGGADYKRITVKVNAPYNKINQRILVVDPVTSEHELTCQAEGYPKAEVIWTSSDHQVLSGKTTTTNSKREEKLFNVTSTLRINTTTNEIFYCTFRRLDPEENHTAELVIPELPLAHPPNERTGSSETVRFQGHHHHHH
Method in brief: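 Truncated Fc-fused human PD-1 (aa 25-167) at 20 nM and His-tagged PD-L1 (aa 18-239) at 10 nM final are used, with peptides preincubated 15 min with PD-L1. Detection uses europium-cryptate anti-Ig and APC anti-His antibodies; 665/620 nm ratio.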

IC50 | SMILES
100 to 990 nM | CCCC[C@H]1C(=O)N2C[C@@H](O)C[C@@H]2C(=O)N[C@@H](CC(=O)O)C(=O)N[C@@H](C(C)C)C(=O)N(C)[C@@H](Cc2ccc(C)cc2)C(=O)N[C@@H](CCC(=O)O)C(=O)N2CCC[C@@H]2C(=O)N[C@@H](Cc2c[nH]c3ccccc23)C(=O)N[C@@H](Cc2ccc(O)cc2)C(=O)N[C@@H](CC(C)C)C(=O)N[C@H](C(=O)NCC(N)=O)CSCC(=O)N[C@@H](Cc2cc(F)c(F)c(F)c2)C(=O)N(C)[C@@H](Cc2ccccc2)C(=O)N1C [Example 10117] ({CH2CO}-[Phe(3,4,5-F3)][NMeF][NMeNle][dHyp]DV[NMePhe(4-Me)]E[dP]WYLCG-NH2; thioether N-13)
1 to 9.9 nM | CCCC[C@H]1C(=O)N(C)[C@@H](CCCC)C(=O)N[C@@H](CCCN)C(=O)N[C@H](C(=O)NCC(N)=O)CSCC(=O)N[C@@H](Cc2ccc(OC)cc2)C(=O)N(C)[C@@H](C)C(=O)N[C@@H](CCN)C(=O)N2CCC[C@H]2C(=O)N[C@@H](Cc2cnc[nH]2)C(=O)N[C@@H](CCC(=O)O)C(=O)N2C[C@H](O)C[C@H]2C(=O)N[C@@H](Cc2c[nH]c3ccccc23)C(=O)N[C@@H](CCN)C(=O)N[C@@H](Cc2c[nH]c3ccccc23)C(=O)N1C [Example 7090] ({CH2CO}-Y(Me)[NMeA][Dab]PHE[Hyp]W[Dab]W[NMeNle][NMeNle][Orn]CG-NH2; thioether N-14)
100 to 990 nM | CCCC[C@H]1C(=O)N(C)[C@@H](CCCC)C(=O)N[C@@H](CCC(=O)O)C(=O)NC(C(=O)NCC(N)=O)CSCC(=O)N[C@@H](Cc2ccc(O)cc2)C(=O)N(C)[C@@H](C)C(=O)N[C@@H](CC(N)=O)C(=O)N2CCC[C@H]2C(=O)N[C@@H](CC(N)=O)C(=O)N[C@@H](CC(C)C)C(=O)N2CCC[C@H]2C(=O)N[C@@H](Cc2c[nH]c3ccccc23)C(=O)N[C@@H](CN)C(=O)N[C@@H](Cc2c[nH]c3ccccc23)C(=O)N1C (some centres unmarked) [Example 9176] ({CH2CO}-Y[NMeA]NPNLPW[Dap]W[NMeNle][NMeNle]E[ξC]G-NH2; thioether N-14)
1 to 9.9 nM | CCCC[C@H]1C(=O)N(C)[C@@H](CCCC)C(=O)N[C@@H](CCC(=O)O)C(=O)NC(C(=O)NCC(N)=O)CSCC(=O)N[C@@H](Cc2ccc(O)cc2)C(=O)N(C)[C@@H](C)C(=O)N[C@@H](CC(N)=O)C(=O)N2CCC[C@H]2C(=O)N[C@@H](Cc2c[nH]cn2)C(=O)N[C@@H](CC(N)=O)C(=O)N2C[C@H](O)C[C@H]2C(=O)N[C@@H](Cc2c[nH]c3ccccc23)C(=O)N[C@@H](CCN)C(=O)N[C@@H](Cc2c[nH]c3ccccc23)C(=O)N1C (some centres unmarked) [Example 9183] ({CH2CO}-Y[NMeA]NPHN[Hyp]W[Dab]W[NMeNle][NMeNle]E[ξC]G-NH2; thioether N-14)
1 to 9.9 nM | CCCC[C@H]1C(=O)N2CCC[C@@H]2C(=O)N[C@@H](CC(=O)O)C(=O)N[C@@H](C(C)C)C(=O)N(C)[C@@H](Cc2ccccc2)C(=O)N[C@@H](CCC(=O)O)C(=O)N2CCOC[C@@H]2C(=O)N[C@@H](Cc2c[nH]c3ccccc23)C(=O)N[C@@H](Cc2ccc(O)cc2)C(=O)N[C@@H](CC(N)=O)C(=O)N[C@H](C(=O)NCC(N)=O)CSCC(=O)N[C@@H](Cc2cc(F)c(F)c(F)c2)C(=O)N(C)[C@@H](Cc2ccc(F)cc2)C(=O)N1C [Example 10597] ({CH2CO}-[Phe(3,4,5-F3)][NMePhe(4-F)][NMeNle][dP]DV[NMeF]E[X1]WYNCG-NH2; thioether N-13)
10 to 99.9 nM | CCCC[C@H]1C(=O)N2CCC[C@@H]2C(=O)N[C@@H](CO)C(=O)N[C@@H](C(C)C)C(=O)N(C)[C@@H](Cc2ccccc2)C(=O)N[C@@H](Cc2ccc(O)cc2)C(=O)N(C)CC(=O)N[C@@H](Cc2c[nH]c3ccccc23)C(=O)N[C@@H](Cc2ccc(O)cc2)C(=O)N[C@@H](CC(C)C)C(=O)N[C@H](C(=O)NCC(N)=O)CSCC(=O)N[C@@H](Cc2ccccc2)C(=O)N(C)[C@@H](Cc2ccccc2)C(=O)N1C [Example 10062] ({CH2CO}-F[NMeF][NMeNle][dP]SV[NMeF]Y[Sar]WYLCG-NH2; thioether N-13)
1 to 9.9 nM | CCCC[C@H]1C(=O)N(C)[C@@H](CCCC)C(=O)N[C@@H](CO)C(=O)N[C@H](C(=O)NCC(N)=O)CSCC(=O)N[C@@H](Cc2ccc(OC)cc2)C(=O)N(C)[C@@H](C)C(=O)N[C@@H](CC(N)=O)C(=O)N2CCC[C@H]2C(=O)N[C@@H](Cc2c[nH]cn2)C(=O)N[C@@H](CCC(N)=O)C(=O)N2C[C@H](O)C[C@H]2C(=O)N[C@@H](Cc2c[nH]c3ccccc23)C(=O)N[C@@H](CO)C(=O)N[C@@H](Cc2cn(CC(=O)O)c3ccccc23)C(=O)N1C [Example 7143] ({CH2CO}-Y(Me)[NMeA]NPHQ[Hyp]WS[Trp(1-CH2COOH)][NMeNle][NMeNle]SCG-NH2; thioether N-14)
10 to 99.9 nM | CCCC[C@H]1C(=O)N(C)[C@@H](CCCC)C(=O)N[C@@H](CCCN)C(=O)N[C@H](C(=O)NCC(N)=O)CSCC(=O)N[C@@H](Cc2ccc(OC)cc2)C(=O)N(C)[C@@H](C)C(=O)N[C@@H](CCN)C(=O)N2CCC[C@H]2C(=O)N[C@@H](CN)C(=O)N[C@@H](CCC(=O)O)C(=O)N2C[C@H](O)C[C@H]2C(=O)N[C@@H](Cc2c[nH]c3ccccc23)C(=O)N[C@@H](CCN)C(=O)N[C@@H](Cc2c[nH]c3ccccc23)C(=O)N1C [Example 7092] ({CH2CO}-Y(Me)[NMeA][Dab]P[Dap]E[Hyp]W[Dab]W[NMeNle][NMeNle][Orn]CG-NH2; thioether N-14)
1 to 9.9 nM | CCCC[C@H]1C(=O)N(C)[C@@H](CCCC)C(=O)N[C@@H](CC(C)C)C(=O)N[C@H](C(=O)NCC(N)=O)CSCC(=O)N[C@@H](Cc2ccc(O)cc2)C(=O)N(C)[C@@H](C)C(=O)N[C@@H](CC(N)=O)C(=O)N2CCC[C@H]2C(=O)N[C@@H](Cc2c[nH]cn2)C(=O)N[C@@H](CCC(=O)O)C(=O)N2C[C@H](O)C[C@H]2C(=O)N[C@@H](Cc2c[nH]c3ccccc23)C(=O)N[C@H](C)C(=O)N[C@@H](Cc2csc3ccccc23)C(=O)N1C [Example 5169] ({CH2CO}-Y[NMeA]NPHE[Hyp]W[dA][Bta][NMeNle][NMeNle]LCG-NH2; thioether N-14)
1 to 9.9 nM | CCCC[C@H]1C(=O)N(C)[C@@H](CCCC)C(=O)N[C@@H](CCC(=O)O)C(=O)N[C@H](C(=O)NCC(N)=O)CSCC(=O)N[C@@H](Cc2ccc(O)cc2)C(=O)N(C)[C@@H](C)C(=O)N[C@@H](CC(=O)O)C(=O)N2CCC[C@H]2C(=O)N[C@@H](Cc2cnc[nH]2)C(=O)N[C@@H](CCC(N)=O)C(=O)N2C[C@H](O)C[C@H]2C(=O)N[C@@H](Cc2c[nH]c3ccccc23)C(=O)N[C@@H](CO)C(=O)N[C@@H](Cc2cn(C)c3ccccc23)C(=O)N1C [Example 1500] ({CH2CO}-Y[NMeA]DPHQ[Hyp]WS[Trp(1-Me)][NMeNle][NMeNle]ECG-NH2; thioether N-14)

same assay, conditions: PD-L1-His 10 nM, PD-1-Ig 20 nM; read-out: HTRF Human PD-L1/PD-1 Binding Assay IC50

IC50 | SMILES
158 nM | CCCC[C@H]1C(=O)N(C)CC(=O)N[C@@H](CC(=O)O)C(=O)N[C@@H](C)C(=O)N(C)[C@@H](Cc2ccccc2)C(=O)N[C@@H](Cc2ccc(O)cc2)C(=O)N2C[C@@H](O)C[C@@H]2C(=O)N[C@@H](Cc2c[nH]c3ccccc23)C(=O)N[C@@H](Cc2ccc(O)cc2)C(=O)N[C@@H](CC(C)C)C(=O)N[C@H](C(=O)NCC(N)=O)CSCC(=O)N[C@@H](Cc2ccccc2)C(=O)N(C)[C@@H](Cc2ccccc2)C(=O)N1C [Example 10083] ({CH2CO}-F[NMeF][NMeNle][Sar]DA[NMeF]Y[dHyp]WYLCG-NH2; thioether N-13)
